SMILES strings stand for the structures.

ROCK2, sequence (O75116 whole entry, species assumed): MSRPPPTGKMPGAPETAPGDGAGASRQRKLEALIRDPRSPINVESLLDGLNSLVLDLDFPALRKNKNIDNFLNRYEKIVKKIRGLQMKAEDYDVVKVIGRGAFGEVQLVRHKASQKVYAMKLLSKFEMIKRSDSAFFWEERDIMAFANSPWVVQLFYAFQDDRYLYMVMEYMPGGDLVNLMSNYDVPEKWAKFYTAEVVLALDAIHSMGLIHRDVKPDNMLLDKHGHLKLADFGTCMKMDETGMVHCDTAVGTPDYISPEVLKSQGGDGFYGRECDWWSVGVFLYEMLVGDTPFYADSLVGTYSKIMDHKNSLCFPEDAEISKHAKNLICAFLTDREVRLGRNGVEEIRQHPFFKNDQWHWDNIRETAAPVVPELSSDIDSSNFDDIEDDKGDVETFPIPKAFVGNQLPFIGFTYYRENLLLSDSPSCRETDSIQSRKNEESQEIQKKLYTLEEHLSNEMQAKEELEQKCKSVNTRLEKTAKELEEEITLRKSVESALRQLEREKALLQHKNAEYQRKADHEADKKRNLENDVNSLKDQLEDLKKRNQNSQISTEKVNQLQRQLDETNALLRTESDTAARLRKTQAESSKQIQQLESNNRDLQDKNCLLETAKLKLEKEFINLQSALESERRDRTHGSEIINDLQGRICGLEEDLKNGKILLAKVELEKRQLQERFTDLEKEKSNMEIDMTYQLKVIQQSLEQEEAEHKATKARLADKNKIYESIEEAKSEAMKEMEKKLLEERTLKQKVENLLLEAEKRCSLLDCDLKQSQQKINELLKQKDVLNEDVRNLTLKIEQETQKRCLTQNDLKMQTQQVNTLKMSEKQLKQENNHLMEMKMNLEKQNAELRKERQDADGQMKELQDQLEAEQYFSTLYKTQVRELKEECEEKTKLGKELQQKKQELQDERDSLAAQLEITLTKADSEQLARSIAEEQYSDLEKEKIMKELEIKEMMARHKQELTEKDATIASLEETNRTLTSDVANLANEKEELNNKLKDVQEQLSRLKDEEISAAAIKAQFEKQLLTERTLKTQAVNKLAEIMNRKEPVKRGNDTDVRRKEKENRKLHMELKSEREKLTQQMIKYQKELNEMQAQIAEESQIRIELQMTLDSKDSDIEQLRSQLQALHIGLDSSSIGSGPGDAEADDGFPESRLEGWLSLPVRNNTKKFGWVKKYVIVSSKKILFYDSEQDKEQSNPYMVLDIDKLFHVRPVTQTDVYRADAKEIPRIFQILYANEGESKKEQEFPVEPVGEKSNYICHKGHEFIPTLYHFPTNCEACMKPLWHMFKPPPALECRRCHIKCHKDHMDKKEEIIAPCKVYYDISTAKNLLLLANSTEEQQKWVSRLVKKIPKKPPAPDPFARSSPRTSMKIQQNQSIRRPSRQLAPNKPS

One test relates to rat stroke model.
Assay: not given
To be noted: in vivo; cited from earlier work.
For `O=S(=O)(c1cccc2cnccc12)N1CCCNCC1` [fasudil], the “infarct size and neurologic deficit” value is “reduce both the infarct size and neurologic deficit”.

The next test concerns neointimal formation in rats.
Assay: not given
To be noted: balloon injury model; cited from earlier work.
`C[C@@H](N)[C@H]1CC[C@H](C(=O)Nc2ccncc2)CC1` [Example Y-27632, Y-27632]: the neointimal formation entry was “inhibited neointimal formation”.

A further test deals with spontaneously hypertensive rat, renal hypertensive rat and deoxycortisone acetate salt hypertensive rat models.
Assay: not given
To be noted: control rats; cited from earlier work.
As to `C[C@@H](N)[C@H]1CC[C@H](C(=O)Nc2ccncc2)CC1` [Example Y-27632, Y-27632], the blood pressure result is “only a minor effect on blood pressure”.

Staying with this test, now noted: three rat models of hypertension; cited from earlier work.
In the case of `C[C@@H](N)[C@H]1CC[C@H](C(=O)Nc2ccncc2)CC1` [Example Y-27632, Y-27632], the blood pressure entry is “significantly decrease blood pressure”.

A further test concerns the target ROCK2 (Homo sapiens (Human), UniProt O75116). Kind of test: ROCK assay (peptide substrate phosphorylation, LABCHIP 3000 Reader). It counts as biochemical. To be noted: 5 μM ATP, 1.5 μM peptide substrate. As for the experimental part:
Compounds were dissolved in DMSO so that the final concentration of DMSO was <2%, and the reaction was initiated with Rho kinase variants. After incubation, the reaction was terminated by the addition of EDTA and the phosphorylated and non-phosphorylated peptides separated using a LABCHIP® 3000 Reader (Caliper Life Sciences). […] Compounds were tested in dose-response format, and the inhibition of kinase activity was calculated at each concentration of compound.
What is called IC50 is the concentration that gives 50% inhibition. A high value points to weaker potency in that assay. On to `CNC(=O)c1cccc([C@H]2CC(O)CN2C(=O)c2ccc(-c3cn[nH]c3)c(OC)c2)c1` (stereo partly drawn) [Example 46, 3-[(2R)-4-hydroxy-1-[3-methoxy-4-(1H-pyrazol-4-yl)benzoyl]pyrrolidin-2-yl]-N-methylbenzamide], for which the midpoint of inhibition, the IC50, lay at 18.2 nM. In other words, the double-digit nanomolar range.
On the same count and under the same terms, next, `COc1cc(C(=O)N2CCCC2c2cccc(Br)c2)ccc1-c1cn[nH]c1` (stereo not drawn) [Example 15, 4-{4-[2-(3-bromophenyl)pyrrolidine-1-carbonyl]-2-methoxyphenyl}-1H-pyrazole]: 31 nM; `COc1cc(C(=O)N2CC(F)(F)C[C@@H]2c2cccc(C(=O)NC3CC3)c2)ccc1-c1ccncc1` [Example 79, N-Cyclopropyl-3-[(2R)-4,4-difluoro-1-[3-methoxy-4-(pyridin-4-yl)benzoyl]pyrrolidin-2-yl]benzamide]: 24.3 nM.
The same measure, in the same setting: next, `COc1cc(C(=O)N2CC(O)C[C@@H]2c2ccc3cn[nH]c3c2)ccc1-c1cn[nH]c1` (stereo partly drawn) [Example 108, (5R)-5-(1H-Indazol-6-yl)-1-[3-methoxy-4-(1H-pyrazol-4-yl)benzoyl] pyrrolidin-3-ol]: 7.65 nM; `COc1cc(C(=O)N2CC(O)C[C@@H]2c2cccc(C(=O)N3CCC3)c2)ccc1-c1cn[nH]c1` (stereo partly drawn) [Example 67, (5R)-5-[3-(azetidine-1-carbonyl)phenyl]-1-[3-methoxy-4-(1H-pyrazol-4-yl)benzoyl]pyrrolidin-3-ol]: 293 nM; `COc1cccc(C2CCCN2C(=O)c2ccc(-c3ccnc(F)c3)c(OC)c2)c1` (stereo not drawn) [Example 83, 2-fluoro-4-{2-methoxy-4-[2-(3-methoxyphenyl)pyrrolidine-1-carbonyl]phenyl}pyridine]: 153 nM.
On the same count and under the same terms, next, `COc1cc(C(=O)N2CCC[C@@H]2c2cccc(C(=O)NCC(C)(C)O)c2)ccc1-c1cn[nH]c1` [Example 39, N-(2-hydroxy-2-methylpropyl)-3-[(2R)-1-[3-methoxy-4-(1H-pyrazol-4-yl)benzoyl]pyrrolidin-2-yl]benzamide]: 4.52 nM; `COc1ccc(C2CCCN2C(=O)c2ccc(-c3cn[nH]c3)c(OC)c2)cc1` (stereo not drawn) [Example 25, 4-{2-methoxy-4-[2-(4-methoxyphenyl)pyrrolidine-1-carbonyl]phenyl}-1H-pyrazole]: 331 nM; `COc1cc(C(=O)N2C[C@H](O)C[C@@H]2c2ccccc2F)ccc1-c1cn[nH]c1` [Example 92, (3R,5R)-5-(2-Fluorophenyl)-1-[3-methoxy-4-(1H-pyrazol-4-yl)benzoyl] pyrrolidin-3-ol]: 8.03 nM.
Turning to `COc1cc(C(=O)N2CCCC2c2ccc3c(c2)OCO3)ccc1-c1cn[nH]c1` (stereo not drawn) [Example 30, 4-{4-[2-(2H-1,3-benzodioxol-5-yl)pyrrolidine-1-carbonyl]-2-methoxyphenyl}-1H-pyrazole], the half-maximal inhibitory concentration (IC50) was 75.3 nM.
Same read-out and setting: next, `COc1cc(C(=O)N2CC(O)C[C@@H]2c2ccc3c(I)n[nH]c3c2)ccc1-c1cn[nH]c1` (stereo partly drawn) [Example 109, (5R)-5-(3-Iodo-1H-indazol-6-yl)-1-[3-methoxy-4-(1H-pyrazol-4-yl)benzoyl]pyrrolidin-3-ol]: 902 nM; `COc1cc(C(=O)N2CCCC2c2cccc(S(N)(=O)=O)c2)ccc1-c1cn[nH]c1` (stereo not drawn) [Example 16, 3-{1-[3-methoxy-4-(1H-pyrazol-4-yl)benzoyl]pyrrolidin-2-yl}benzene-1-sulfonamide]: 3.57 nM.
Compound `COC(=O)c1cccc([C@H]2CCCN2C(=O)c2ccc(-c3cn[nH]c3)c(OC)c2)c1` [Example 32, Methyl 3-[(2R)-1-[3-methoxy-4-(1H-pyrazol-4-yl)benzoyl]pyrrolidin-2-yl]benzoate] registered an IC50 of 5.83 nM.
Take `COc1cc(C(=O)N2CCCC2c2cccc(-c3cnn(CC(C)(C)O)c3)c2)ccc1-c1cn[nH]c1` (stereo not drawn) [Example 74, 1-[4-(3-{1-[3-methoxy-4-(1H-pyrazol-4-yl)benzoyl]pyrrolidin-2-yl}phenyl)-1H-pyrazol-1-yl]-2-methylpropan-2-ol]: the IC50 was determined as 901 nM.
Same read-out and setting: next, `COc1cc(C(=O)N2CCCC2c2cccc(-c3ccnn3C)c2)ccc1-c1cn[nH]c1` (stereo not drawn) [Example 73, 5-(3-{1-[3-methoxy-4-(1H-pyrazol-4-yl)benzoyl]pyrrolidin-2-yl}phenyl)-1-methyl-1H-pyrazole]: 1530 nM; `CCNC(=O)c1cccc(C2CCCN2C(=O)c2ccc(-c3cn[nH]c3)c(OC)c2)c1` (stereo not drawn) [Example 35, N-Ethyl-3-(1-(3-methoxy-4-(1H-pyrazol-4-yl)benzoyl)pyrrolidin-2-yl)benzamide]: 4.89 nM; `COc1cc(C(=O)N2CC(O)C[C@@H]2c2cccc(C(=O)NC(C)C)c2)ccc1-c1cn[nH]c1` (stereo partly drawn) [Example 52, 3-[(2R)-4-hydroxy-1-[3-methoxy-4-(1H-pyrazol-4-yl)benzoyl]pyrrolidin-2-yl]-N-(propan-2-yl)benzamide]: 6.68 nM.
Same read-out and setting: to `COC(=O)c1cccc([C@H]2CC(OC(C)=O)CN2C(=O)c2ccc(-c3cn[nH]c3)c(OC)c2)c1` (stereo partly drawn) [Example 43, Methyl 3-[(2R)-4-(acetyloxy)-1-[3-methoxy-4-(1H-pyrazol-4-yl)benzoyl]pyrrolidin-2-yl]benzoate] belongs 54.4 nM; to `COc1cc(C(=O)N2CCC[C@H]2CO)ccc1-c1cn[nH]c1` [Example 3, [(2S)-1-[3-methoxy-4-(1H-pyrazol-4-yl)benzoyl]pyrrolidin-2-yl]methanol], 1340 nM; to `COc1cc(C(=O)N2CC(F)(F)C[C@@H]2c2cccc(C(=O)NC3CC3)c2)ccc1-c1cn[nH]c1` [Example 80, N-Cyclopropyl-3-[(2R)-4,4-difluoro-1-[3-methoxy-4-(1H-pyrazol-4-yl)benzoyl]pyrrolidin-2-yl]benzamide], 5.4 nM.
The compound `COc1cc(C(=O)NC2CCc3ccccc32)ccc1-c1cn[nH]c1` (stereo not drawn) [Example 5, N-(2,3-dihydro-1H-inden-1-yl)-3-methoxy-4-(1H-pyrazol-4-yl)benzamide] gave a half-maximal inhibitory concentration (IC50) of 32.2 nM.
The same measure, in the same setting: next, `COc1cc(C(=O)N2CCCC2c2cccc(C)c2)ccc1-c1cn[nH]c1` (stereo not drawn) [Example 27, 4-{2-methoxy-4-[2-(3-methyl-phenyl)pyrrolidine-1-carbonyl]phenyl}-1H-pyrazole]: 61.4 nM; `COc1cc(C(=O)N2CCCC2c2cccc(-c3ccoc3)c2)ccc1-c1cn[nH]c1` (stereo not drawn) [Example 76, 4-(4-{2-[3-(furan-3-yl)phenyl]pyrrolidine-1-carbonyl}-2-methoxyphenyl)-1H-pyrazole]: 320 nM.
The same measure, in the same setting: to `COc1cc(C(=O)N2CC(O)C[C@@H]2c2cccc(C(=O)N3CC(F)C3)c2)ccc1-c1cn[nH]c1` (stereo partly drawn) [Example 64, (5R)-5-[3-(3-fluoroazetidine-1-carbonyl)phenyl]-1-[3-methoxy-4-(1H-pyrazol-4-yl)benzoyl]pyrrolidin-3-ol] belongs 204 nM.
The same measure, in the same setting: next, `COc1cc(C(=O)N2CCCC2c2cccc(O)c2)ccc1-c1cn[nH]c1` (stereo not drawn) [Example 21, 3-{1-[3-methoxy-4-(1H-pyrazol-4-yl)benzoyl]pyrrolidin-2-yl}phenol]: 2.74 nM; `COc1cc(C(=O)N2CC(O)C[C@@H]2c2cccc(C(=O)NC3CC3)c2)ccc1-c1cn[nH]c1` (stereo partly drawn) [Example 48, N-cyclopropyl-3-[(2R)-4-hydroxy-1-[3-methoxy-4-(1H-pyrazol-4-yl)benzoyl]pyrrolidin-2-yl]benzamide]: 5.32 nM; `N#Cc1cc(C(=O)N2C[C@H](O)C[C@@H]2c2ccccc2F)ccc1-c1cn[nH]c1` [Example 97, 5-[(2R)-2-(2-Fluorophenyl)-4-hydroxypyrrolidine-1-carbonyl]-2-(1H-pyrazol-4-yl)benzonitrile]: 721 nM.
Compound `CCN1CCC[C@H]1CNC(=O)c1cccc([C@H]2CC(O)CN2C(=O)c2ccc(-c3cn[nH]c3)c(OC)c2)c1` (stereo partly drawn) [Example 49, N-{[(2S)-1-ethylpyrrolidin-2-yl]methyl}-3-[(2R)-4-hydroxy-1-[3-methoxy-4-(1H-pyrazol-4-yl)benzoyl]pyrrolidin-2-yl]benzamide] displayed a 50% inhibitory concentration (IC50) of 43.4 nM.
Same read-out and setting: to `COc1cccc(C2CCCN2C(=O)c2ccc(-c3cn[nH]c3)c(OC)c2)c1` (stereo not drawn) [Example 4, 4-{2-methoxy-4-[2-(3-methoxyphenyl)pyrrolidine-1-carbonyl]phenyl}-1H-pyrazole] belongs 31.8 nM.
The same measure, in the same setting: to `COc1cc(C(=O)N2CCCC2c2ccc(F)cc2)ccc1-c1cn[nH]c1` (stereo not drawn) [Example 19, 4-{4-[2-(4-fluorophenyl)pyrrolidine-1-carbonyl]-2-methoxyphenyl}-1H-pyrazole] belongs 41.4 nM; to `COc1cc(C(=O)N2CCNCC2c2ccccc2)ccc1-c1cn[nH]c1` (stereo not drawn) [Example 68, 1-[3-Methoxy-4-(1H-pyrazol-4-yl)benzoyl]-2-phenylpiperazine], 60.2 nM.
Still for that read-out and setting: next, `COc1cc(C(=O)N2CC(O)C[C@@H]2c2cccc(C(=O)O)c2)ccc1-c1cn[nH]c1` (stereo partly drawn) [Example 44, 3-[(2R)-4-Hydroxy-1-[3-methoxy-4-(1H-pyrazol-4-yl)benzoyl]pyrrolidin-2-yl]benzoic acid]: 49.7 nM.

The next test concerns Dahl salt-sensitive rats.
Assay: not given
To be noted: rat, in vivo; cited from earlier work.
In the case of `C[C@@H](N)[C@H]1CC[C@H](C(=O)Nc2ccncc2)CC1` [Example Y-27632, Y-27632], the “ventricular hypertrophy, fibrosis and function” value is “improve ventricular hypertrophy, fibrosis and function”.

For the next test, the system named is IL-1 beta-induced coronary stenosis.
Assay: not given
To be noted: long term treatment; cited from earlier work.
For the compound `O=S(=O)(c1cccc2cnccc12)N1CCCNCC1` [fasudil], the coronary constrictive remodeling result is listed as “promote a regression of coronary constrictive remodeling” and the coronary stenosis entry was “progressively reduce coronary stenosis”.

(Values after patent US10112939B2, “Tied-back benzamide derivatives as potent rock inhibitors” (Bristol-Myers Squibb Company, priority 2014, dated 2018).)
